Target: T1, glucocerebrosidase (Gcase) (Homo sapiens, UniProt P04062)
T1 sequence (P04062 40-536): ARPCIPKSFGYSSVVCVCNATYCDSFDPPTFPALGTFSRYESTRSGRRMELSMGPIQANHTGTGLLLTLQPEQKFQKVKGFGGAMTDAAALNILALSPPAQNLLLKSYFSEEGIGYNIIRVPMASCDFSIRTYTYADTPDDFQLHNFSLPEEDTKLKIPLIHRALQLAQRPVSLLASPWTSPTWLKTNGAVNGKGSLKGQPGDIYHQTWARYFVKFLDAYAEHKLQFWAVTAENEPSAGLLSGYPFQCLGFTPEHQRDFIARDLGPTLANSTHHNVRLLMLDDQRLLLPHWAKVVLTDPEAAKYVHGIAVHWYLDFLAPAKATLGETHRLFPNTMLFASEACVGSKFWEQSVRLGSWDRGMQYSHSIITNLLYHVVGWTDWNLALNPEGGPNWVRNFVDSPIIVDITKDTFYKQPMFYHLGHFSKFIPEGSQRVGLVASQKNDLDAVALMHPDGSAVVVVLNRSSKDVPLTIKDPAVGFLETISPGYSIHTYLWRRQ
Assay: Glucocerebrosidase (Gcase) activation assay, 4-methylumbelliferyl-beta-D-glucopyranoside substrate, with saposin C
Assay type: biochemical
Details: 10 nM GCase, 100 nM saposin C, pH 4.7
Experimental: The ability of exemplary compounds to activate glucocerebrosidase (Gcase) was measured.
A 484 μL aliquot of a 1.0 mg/mL solution of phosphatidylserine (PS) (Sigma P7769) in chloroform was evaporated under a stream of nitrogen for 1 hour. The lipid film was dissolved over 4 minutes of vigorous vortexing in 40 mL of 176 mM K2HPO4/50 mM citric acid (pH 4.7) containing 7.5 μL of triton X-100, resulting in a mixed micellar preparation with a composition of 0.32 mM triton and 0.37 mol % PS. 4-Methylumbelliferyl-beta-D-glucopyranoside (ACROS-337025000) was dissolved in the micellar solution to a final concentration of 2 mM for use as the reaction substrate.
Test compounds were diluted to the desired concentrations with dimethylsulfoxide (DMSO) from 10 mM stocks, and 0.41 μL of the DMSO compound mixture was added to 100 μL of micellar solution containing 10 nM GCase and 100 nM saposin C (Enzo ALX-201-262-C050). Pre-incubation was allowed to occur for 30 minutes at room temperature, after which the reaction was initiated by combining 25 μL of substrate solution with 25 μL of compound/GCase/saposin mixture. The reaction proceeded for 15 minutes at room temperature and was stopped by adding 150 μL of 1M glycine, pH 12.5. The endpoint of the reaction was monitored by measuring fluorescence intensity (excitation: 365 nm; emission: 440 nm) on a SpectraMax i3 instrument (Molecular Devices). Test compounds were screened at 1.0 and 0.1 μM final concentration, and subsequent 8-point dose response curves were obtained using 3-fold dilutions from a maximum final concentration of 5 μM.
For experiments in which the test compound was used at a concentration of 1.0 μM, the symbol “+” indicates less than 30% Gcase activation; the symbol “++” indicates Gcase activation in the range of 30% up to 60%; and the symbol “+++” indicates Gcase activation greater than 60%. For experiments in which the test compound was used at a concentration of 0.1 μM, the symbol “*” indicates less than 10% Gcase activation; the symbol “**” indicates Gcase activation in the range of 10% up to 20%; and the symbol “***” indicates greater than 20% Gcase activation.

Percent Gcase Activation 0.1 μM Test Compound	Percent Gcase Activation 1 μM Test Compound	SMILES
* (less than 10% Gcase activation)	+ (less than 30% Gcase activation)	Cc1cc(C)n2ncc(C(=O)Nc3ccc(-c4cnn(C)c4)nc3)c2n1 [III-23]
* (less than 10% Gcase activation)	+ (less than 30% Gcase activation)	Cc1cc(C)n2ncc(CNc3ccc(-c4cocn4)nc3)c2n1 [III-24]
* (less than 10% Gcase activation)	+ (less than 30% Gcase activation)	Cc1ccn2ncc(CNc3ccc(-c4cocn4)cc3)c2n1 [III-25]
* (less than 10% Gcase activation)	+ (less than 30% Gcase activation)	Cc1ccn2ncc(CNc3ccc(-c4ncco4)cc3)c2n1 [III-26]
* (less than 10% Gcase activation)	+ (less than 30% Gcase activation)	Cc1cc(C)n2ncc(C(=O)Nc3nc4ccccc4[nH]3)c2n1 [III-28]
* (less than 10% Gcase activation)	+ (less than 30% Gcase activation)	COCC#Cc1ccc(NCc2cnn3c(C)cc(C)nc23)cc1 [III-29]
* (less than 10% Gcase activation)	+ (less than 30% Gcase activation)	Cc1cc(C)n2ncc(C(=O)Nc3ccc(-c4ncc[nH]4)cc3)c2n1 [III-30]
* (less than 10% Gcase activation)	+ (less than 30% Gcase activation)	Cc1cc(C)n2ncc(C(=O)Nc3ccc(-c4cc[nH]n4)cc3)c2n1 [III-31]
* (less than 10% Gcase activation)	+ (less than 30% Gcase activation)	C#CCOc1ccc(NC(=O)c2cnn3c(C)cc(C)nc23)cc1 [III-33]
* (less than 10% Gcase activation)	+ (less than 30% Gcase activation)	Cc1cc(C)n2ncc(C(=O)Nc3ccc(CCCC(=O)O)cc3)c2n1 [III-34]
* (less than 10% Gcase activation)	+ (less than 30% Gcase activation)	Cc1cc(C)n2ncc(C(=O)Nc3ccc(C(C)O)cc3)c2n1 (stereo not drawn) [III-35]
* (less than 10% Gcase activation)	+ (less than 30% Gcase activation)	Cc1cc(C)n2ncc(C(=O)Nc3ccc(CCC(=O)O)cc3)c2n1 [III-36]

Continued, compound first:

SMILES	Percent Gcase Activation 0.1 μM Test Compound	Percent Gcase Activation 1 μM Test Compound
C#Cc1ccc(NC(=O)c2cnn3c(C)cc(C)nc23)nc1 [III-1]	* (less than 10% Gcase activation)	++ (Gcase activation in the range of 30% up to 60%)
C#Cc1ccc(NC(=O)c2cnn3c(C)cc(C)nc23)cn1 [III-2]	* (less than 10% Gcase activation)	+ (less than 30% Gcase activation)
Cc1cc(C)n2ncc(C(=O)Nc3ccc(-c4ccccc4)cc3)c2n1 [III-3]	*** (greater than 20% Gcase activation)	++ (Gcase activation in the range of 30% up to 60%)
COCC#Cc1ccc(NC(=O)c2cnn3c(C)cc(C)nc23)cc1 [III-4]	** (Gcase activation in the range of 10% up to 20%)	+++ (Gcase activation greater than 60%)
Cc1cc(C)n2ncc(C(=O)Nc3ccc(Oc4ccccc4)cc3)c2n1 [III-5]	*** (greater than 20% Gcase activation)	++ (Gcase activation in the range of 30% up to 60%)
Cc1cc(C)n2ncc(C(=O)Nc3ccc(-n4ccnc4)cc3)c2n1 [III-6]	* (less than 10% Gcase activation)	+ (less than 30% Gcase activation)
Cc1cc(C)n2ncc(C(=O)Nc3ccc(-c4nccs4)cc3)c2n1 [III-7]	** (Gcase activation in the range of 10% up to 20%)	+++ (Gcase activation greater than 60%)
C#Cc1ccc(NC(=O)c2cnn3c(C)cc(C)nc23)c(OC)c1 [III-8]	** (Gcase activation in the range of 10% up to 20%)	++ (Gcase activation in the range of 30% up to 60%)
Cc1cc(C)n2ncc(C(=O)Nc3ccc(-c4ccon4)cc3)c2n1 [III-9]	* (less than 10% Gcase activation)	+++ (Gcase activation greater than 60%)
Cc1cc(C)n2ncc(C(=O)Nc3ccc(-c4cocn4)cc3)c2n1 [III-10]	** (Gcase activation in the range of 10% up to 20%)	+++ (Gcase activation greater than 60%)
Cc1cc(C)n2ncc(C(=O)Nc3ccc(-c4ncco4)cc3)c2n1 [III-11]	** (Gcase activation in the range of 10% up to 20%)	+++ (Gcase activation greater than 60%)
Cc1cc(C)n2ncc(C(=O)Nc3cc(-c4ccccc4)on3)c2n1 [III-12]	* (less than 10% Gcase activation)	+ (less than 30% Gcase activation)
C#CC1CCC(NC(=O)c2cnn3c(C)cc(C)nc23)CC1 (stereo not drawn) [III-13]	* (less than 10% Gcase activation)	+ (less than 30% Gcase activation)
C#C[C@H]1CC[C@H](NC(=O)c2cnn3c(C)cc(C)nc23)CC1 [III-14]	* (less than 10% Gcase activation)	+ (less than 30% Gcase activation)
C#C[C@H]1CC[C@@H](NC(=O)c2cnn3c(C)cc(C)nc23)CC1 [III-15]	* (less than 10% Gcase activation)	+ (less than 30% Gcase activation)
Cc1cc(C)n2ncc(C(=O)Nc3ccc(-c4cnsc4)cc3)c2n1 [III-16]	** (Gcase activation in the range of 10% up to 20%)	+++ (Gcase activation greater than 60%)
Cc1cc(C)n2ncc(C(=O)Nc3ccc(-c4cnoc4)cc3)c2n1 [III-17]	* (less than 10% Gcase activation)	+ (less than 30% Gcase activation)
Cc1cc(C)n2ncc(C(=O)Nc3cc(C4(C(F)(F)F)CC4)on3)c2n1 [III-18]	* (less than 10% Gcase activation)	+ (less than 30% Gcase activation)
Cc1cc(C)n2ncc(C(=O)Nc3ccc(-c4cocn4)nc3)c2n1 [III-19]	* (less than 10% Gcase activation)	+ (less than 30% Gcase activation)
Cc1cc(C)n2ncc(C(=O)Nc3ccc(-c4cccs4)nc3)c2n1 [III-20]	*** (greater than 20% Gcase activation)	+++ (Gcase activation greater than 60%)
Cc1cc(C)n2ncc(C(=O)Nc3ccc(-c4ccncc4)nc3)c2n1 [III-21]	* (less than 10% Gcase activation)	+ (less than 30% Gcase activation)
Cc1cc(C)n2ncc(C(=O)Nc3ccc(-c4ccco4)nc3)c2n1 [III-22]	* (less than 10% Gcase activation)	++ (Gcase activation in the range of 30% up to 60%)
Cc1cc(C)n2ncc(C(=O)Nc3ccc(-c4cscn4)cc3)c2n1 [III-27]	** (Gcase activation in the range of 10% up to 20%)	+++ (Gcase activation greater than 60%)
CCCCCOc1ccc(NC(=O)c2cnn3c(C)cc(C)nc23)cc1 [III-32]	** (Gcase activation in the range of 10% up to 20%)	+++ (Gcase activation greater than 60%)

— US11932645B2, “Substituted pyrazolo[1,5-a]pyrimidines and their use in the treatment of medical disorders” (Bial—R&D Investments, S.A., priority 2014, dated 2024)
